pEC50, pIC50: −log10 of the molar value. In brackets after ≈: the same amount, converted by molar mass. Like-named read-outs stand apart in the source and are kept apart here.
Experiments:
[1] = Microsomal metabolic stability; format: in vitro ADME; conditions: human, pooled liver microsomes; for half-life at 1 µM: pH 7.4, liver microsomes; for microsomal CLint at 1 µM: pH 7.4, read-out: Metabolic stability - Intrinsic clearance (CI)
Summary of the method: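 Pooled liver microsomes were incubated with NADPH for 0, 5, 15, 30 and 45 min; the minus-NADPH control (0.1 M phosphate pH 7.4) ran 45 min only. Reactions were stopped in acetonitrile and analysed by LC–MS/MS. t1/2 = 0.693/k came from the ln peak-area-ratio versus time slope, and CLint (μl/min/mg protein) was derived from it.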

[2] = tested on: bFGF-sensitive (M059K, RT-112, SW780) and bFGF-insensitive (SKOV3, AGS and HCT116) cell lines; experiment: SIA, collagen I invasion in panel of human cancer cell models; format: cell-based; conditions: 10 µM
Method: 1000—2500 cells/well in 100 μl were seeded in 96 well Corning® Spheroid microplate (CLS4520, Sigma-Aldrich) or in cell-repellent 96 well microplate (650,790, Greiner Bio-one). SIA and analysis was performed as described before. In brief: After spheroid formation (24 – 72 h after seeding), 70 µl medium was removed and replaced with the collagen mixture (2.5 mg/ml Pure Col Collagen I (Advanced Biomatrix)), DMEM 1x (from 10 × stock, Sigma, D2429) and 0.4% Sodium bicarbonate (Sigma, S8761)), resulting in a final collagen concentration of 1.75 mg/ml. Embedded spheroids were stimulated with bFGF (100 ng/ml if not otherwise stated), HGF (30 ng /ml) or EGF (20 ng/ml) and distance of invaded cells quantified 24 – 48 h after embedding. Compounds and BGJ398 were added in Dimethylsulfoxid (DMSO) and corresponding DMSO concentrations were used in control samples.

[3] = Semi-thermodynamic solubility; format: physicochemical; conditions: for solubility / solubility thermodynamic: PBS, aqueous buffer, thermodynamic from solid; for solubility: Room Temp, Overnight, LC-MSMS; for solubility (result in words): Supplementary Table 2; for solubility thermodynamic: overnight; for solubility thermodynamic / Solubility (class in words): summary sheet
Summary of the method: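 Compound solution agitated overnight at ambient temperature, then centrifuged twice (30 min, 3000 rpm, RT). Supernatant diluted in 50% methanol/water with internal standard and quantified by LC–MS/MS. Solubility derived from a linear or quadratic fit of the standard curve.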

[4] = tested on: HepG2 human hepatocellular carcinoma cells; experiment: Cell viability (cytotoxicity, MTT) using HepG2; format: cell-based; conditions: for MEC: 72h, 3 replicas, NR = No response (Summary sheet); for MTT (MEC) Minimum effective concentration: 72 h, summary sheet
Summary of the method: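 Compounds were tested at 8 concentrations in triplicate on HepG2 cells plated 24 h beforehand, with 72 h exposure in 1% DMSO medium. MTT was loaded 1 h before the end, solubilized in DMSO and read at 570 nm. Minimum effective concentration is the lowest concentration exceeding the significance level, given dose-response or two consecutive points above it.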

[5] = tested on: DAOY cells; experiment: Spheroid invasion assay (SIA), bFGF-induced collagen I invasion; format: cell-based, human; conditions: for functional activity in SIA (result in words): DAOY, bFGF-induced, 1, 5 and 10 µM; for pEC50: Daoy
Summary of the method: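 Spheroids formed over 24–72 h were embedded in collagen I (final 1.75 mg/ml) and stimulated with bFGF (100 ng/ml unless stated), HGF 30 ng/ml or EGF 20 ng/ml with compound in DMSO. Invasion distance was quantified 24–48 h after embedding.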

[6] = CaCo-2 permeability (bi-directional); conditions: human
Summary of the method: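 Caco-2 monolayers (passage 40–60) cultured 20 days on Transwells, equilibrated 40 min in HBSS; compound dosed apically (A-B) or basolaterally (B-A) with 1% v/v DMSO and lucifer yellow integrity marker, in duplicate. LC–MS/MS quantification; Papp from permeation rate, C0 and monolayer area; efflux ratio = Papp(B-A)/Papp(A-B).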

[7] = read-out: t1/2 of clearance (CL1/2), in vitro
[8] = read-out: Solubility Replicate 1
[9] = read-out: Solubility Replicate 2
[10] = read-out: Solubility Replicate 3
[11] = Caco-2, Mean Papp A-B, Caco-2, summary sheet
[12] = Caco-2, Mean Papp B-A, Caco-2, summary sheet
[13] = Caco-2, pH 7.4, Mean % Recovery A2B, HBSS/HBSS, pH 7.4/7.4
[14] = Caco-2, pH 7.4, Mean % Recovery B2A, HBSS/HBSS, pH 7.4/7.4
[15] = Caco-2, pH 7.4, Mean Papp A2B, HBSS/HBSS, pH 7.4/7.4
[16] = Caco-2, pH 7.4, Mean Papp B2A, HBSS/HBSS, pH 7.4/7.4
[17] = Caco-2, pH 7.4, Papp A2B Replicate 1, HBSS/HBSS, pH 7.4/7.4
[18] = Caco-2, pH 7.4, Papp A2B Replicate 2, HBSS/HBSS, pH 7.4/7.4
[19] = Caco-2, pH 7.4, Papp B2A Replicate 1, HBSS/HBSS, pH 7.4/7.4
[20] = Caco-2, pH 7.4, Papp B2A Replicate 2, HBSS/HBSS, pH 7.4/7.4

| Compound | half-life at 1 µM ([1]; read-out: t1/2) [min] | half-life at 1 µM [1, 7] [min] | microsomal CLint at 1 µM [1] [µL/min/mg] | collagen I invasion across cancer cell lines (result in words) [2] | solubility ([3]; read-out: Mean Solubility) [µM] | solubility [3, 8] [µM] | solubility [3, 9] [µM] | solubility [3, 10] [µM] | solubility (result in words) [3] | solubility thermodynamic [3] [µM] | Solubility (class in words) [3] | toxicity in the MTT assay (result in words) [4] | MEC [4] [µM] | MTT (MEC) Minimum effective concentration [4] [µM] | functional activity in SIA (result in words) [5] | efflux ratio at 120 min, 10 μM ([6]; Caco-2) | Papp A→B at 120 min, 10 μM [6, 11] [×10⁻⁶ cm/s] | Papp B→A at 120 min, 10 μM [6, 12] [×10⁻⁶ cm/s] | efflux ratio at 120 min, 10 μM ([6]; Caco-2, pH 7.4) | recovery at 120 min, 10 µM [6, 13] [%] | also measured |
| --- | --- | --- | --- | --- | --- | --- | --- | --- | --- | --- | --- | --- | --- | --- | --- | --- | --- | --- | --- | --- | --- |
| Cc1[nH]nc(-c2ccc(O)c(C)c2O)c1-c1nc2ccccc2s1 [Compound E12] | 5.52 | 5.52 | 251 | inhibited collagen I invasion only in bFGF-sensitive cell lines M059K, RT-112 and SW780 | > 100 | > 100 | > 100 | > 100 | freely soluble | > 100 | Freely | moderate toxicity | 15.6 | 15.6 | comparable inhibition of invasion | 5.13 | 4.53 | 23.2 | 5.13 | 102 | solubility ([3]; read-out: Solubility Replicate 4): > 100 µM; pEC50 ([5]; Homo sapiens, DAOY cells, n = 3 technical replicas, read-out: EC50 for the inhibition of bFGF-induced collagen I invasion): 4.74; recovery at 120 min, 10 µM [6, 14]: 65.6%; Papp A→B at 120 min, 10 μM [6, 15]: 4.53 ×10⁻⁶ cm/s; Papp B→A at 120 min, 10 μM [6, 16]: 23.2 ×10⁻⁶ cm/s; Papp A→B at 120 min, 10 μM [6, 17]: 3.77 ×10⁻⁶ cm/s; Papp A→B at 120 min, 10 μM [6, 18]: 5.28 ×10⁻⁶ cm/s; Papp B→A at 120 min, 10 μM [6, 19]: 22 ×10⁻⁶ cm/s; Papp B→A at 120 min, 10 μM [6, 20]: 24.4 ×10⁻⁶ cm/s |
| O=[N+]([O-])c1c(Cl)cc(O)c2c1C1C=CCC1C(c1ccc(Cl)cc1)N2 (stereo not shown) [Compound 7] | 3.62 | 3.62 | 383 | inhibited collagen I invasion in both bFGF-sensitive and bFGF-insensitive cell lines | 10.4 (≈ 3.92 µg/mL) | 11.8 (≈ 4.45 µg/mL) | 9.33 (≈ 3.52 µg/mL) | 9.97 (≈ 3.76 µg/mL) | sparingly soluble | 10.4 (≈ 3.92 µg/mL) | Sparingly | moderately toxic | 4.38 | 4.38 | performed equally well as 3.18 | 2.84 | 3.59 | 10.2 | 2.84 | 15.3 | pEC50 ([5]; Homo sapiens, 100 ng/ml bFGF, read-out: Collagen I invasion EC50): 5.59; pIC50 ([5]; Homo sapiens, DAOY wt): 5.56; recovery at 120 min, 10 µM [6, 14]: 37.8%; Papp A→B at 120 min, 10 μM [6, 15]: 3.59 ×10⁻⁶ cm/s; Papp B→A at 120 min, 10 μM [6, 16]: 10.2 ×10⁻⁶ cm/s; Papp A→B at 120 min, 10 μM [6, 17]: 3.41 ×10⁻⁶ cm/s; Papp A→B at 120 min, 10 μM [6, 18]: 3.76 ×10⁻⁶ cm/s; Papp B→A at 120 min, 10 μM [6, 19]: 8.39 ×10⁻⁶ cm/s; Papp B→A at 120 min, 10 μM [6, 20]: 12 ×10⁻⁶ cm/s |

From paper PMC10060354, “Discovery of a small molecule ligand of FRS2 that inhibits invasion and tumor growth” (Cellular Oncology, 2022)
